# Data from US4680285A, “Treatment of malignant tumors with 2-(β-D-ribofuranosylthiazole-4-carboxamide related compounds” (priority 1985, dated 1987).
# Entries after “also recorded” stand apart in the source; their conditions may differ.
# Key:
# L-1210 lymphoid leukemia = L-1210 lymphoid leukemia in vivo screen, median survival (Example 5); parameters: species or system CD2 F1 male mice; settings: for Percent Treated Animals/Control Animals: >125% positive; for Treated Group Survival Time (median): control 8.5
# Source text: As an indicator of reproducible activity, compound 1 of the invention was screened against L-1210 lymphoid leukemia in vivo using CD2 F1 male mice as the testing species. The parameter of efficacy chosen was based upon the median survival time of animals treated with the drug vs. appropriate control group animals. Both drug treated animals and control group animals were inoculated IP with 10^5 seed cells of L-1210 lymphoid leukemia in Ascitic fluid.
# One day after tumor inoculation, the drug group of animals was placed on a regimen of treatment of compound 1 at the dose levels as noted below, table 1. The drug treated group of animals was inoculated once daily for five days at the doses noted by IP injection of the test compound appropriately diluted with water.
# Day six was chosen as an indication of drug toxicity. […] Death of drug treated animals after day six was, therefore, attributed to tumor deaths and not drug toxicity.
# The median death day of the control group was day 8.5. […] A percent of drug treated animals/control animals greater than 125% is taken as positive drug activity.
# [1] = system: type 3 parainfluenza virus; settings: cited from earlier work
# [2] = system: P388 lymphocytic leukemia; test: P388 lymphocytic leukemia in vivo, median survival, 30-day test (Examples 7 and 8); parameters: species or system CD2 F1 female mice
# Procedure: For examples 7 and 8, CD2 F1 female mice were used and challenged with P388 lymphocytic leukemia tumors. […] The test period was for thirty days in both Examples 7 and 8.
# For Examples 7 and 8, as well as Examples 9 and 10 below, any animal of the drug treated group which survived beyond the end of the testing period was then evaluated and placed in one of three groups. The first group was designated as cured, meaning the animal was successfully cured of the tumor. The second group designation was no-takes, meaning survival of the animal was considered to be due to failure of tumor implant. The remaining group was designated as tumor survivors meaning the animals lived beyond the test cut-off date but could not be classified as either cured or no-takes.
# For both Examples 7 and 8, thirty animals were used as the control group and six animals each were used at each dose level indicated in tables 3 and 4 below in the drug treated groups. In both Examples 7 and 8, for both the control group and the drug treated groups, tumors were induced by IP inoculation of tumor seed cells on day zero followed by initiation of drug treatment on day one. For both Examples 7a and 8, saline with tween/80 was used as the drug vehicle. For Examples 7b and 7c, water was used as the drug vehicle.
# In both the control group and the drug treated group in Examples 7 and 8, the test animals were inoculated on day zero IP with 10^6 seed cells of P388 lymphocytic leukemia. In both Examples 7 and 8, treatment of the drug group was started on day one and the drug was given IP once daily for nine days. Day six was utilized as the cut-off data for death attributable to toxicity of the drug. […] Efficacy of treatment was determined by comparing median survival time of the drug treated animals compared to median survival time of the control animals, and is expressed as percentage increase of treated animals/control animals (T/C) as per Example 5.
# In this example drug treated animals were injected IP with the dose level noted in Table 3 below. Six animals were treated at each dose level. No control animals survived beyond day 18 with a median death date of day 12.6.
# This examples was performed as per Example 7a at dose levels as noted in table 3b below. A survivor at both the 700 and 800 mg/Kg level was judged as cured. No controls survived beyond day 12 and the mean death day of the control group was day 11.
# This example was run as per Example 7a above at dose levels noted in Table 3c below. All controls were dead by day 14 with a mean death day of day 11.9. At the 500 mg/Kg level, one animal was judged as a cure.
# Compound 2, 2-(2,3,5-tri-O-acetyl-β-D-ribofuranosyl)thiazole-4-carboxamide was tested as per Example 7a above at dose levels noted in Table 4 below. No controls survived beyond day 18 with an average death date of day 12.6.
# [3] = system: Lewis lung seed cells (brain tumors); test: Intracranially inoculated Lewis lung brain tumors in vivo, survival (Example 12); parameters: species or system AKD2 F1 mice; settings: for Treated Group Survival Time: control 9.6
# Source text: For Example 12, compound 1 was given IP to a group of AKD2 F1 mice which were inflicted by intercranial inoculation with Lewis lung seed cells to establish brain tumors.
# For this test, 32 control animals were used and no control animals survived beyond day eleven with a mean death data of day 9.6 for the controls. Water was used as the drug vehicle. For both the control group and the test group, tumors were induced on day zero with initiation of drug treatment on day one where compound 1 was given once daily for nine days. Test results are expressed as T/C as per example 5.
smiles,measurement,setting,value
"NC(=O)c1csc([C@@H]2O[C@H](CO)[C@@H](O)[C@H]2O)n1 [Compound 1, 2-β-D-Ribofuranosylthiazole-4-Carboxamide]",Percent Treated Animals/Control Animals,L-1210 lymphoid leukemia; 12.5 mg/Kg IP once daily x5,111%
same,Treated Group Survival Time (median),L-1210 lymphoid leukemia; 12.5 mg/Kg IP once daily x5,9.5 days
same,Percent Treated Animals/Control Animals,L-1210 lymphoid leukemia; 25 mg/Kg IP once daily x5,120%
same,Treated Group Survival Time (median),L-1210 lymphoid leukemia; 25 mg/Kg IP once daily x5,10.2 days
same,Percent Treated Animals/Control Animals,L-1210 lymphoid leukemia; 50 mg/Kg IP once daily x5,129%
same,Treated Group Survival Time (median),L-1210 lymphoid leukemia; 50 mg/Kg IP once daily x5,11.0 days
same,Percent Treated Animals/Control Animals,L-1210 lymphoid leukemia; 100 mg/Kg IP once daily x5,149%
same,Treated Group Survival Time (median),L-1210 lymphoid leukemia; 100 mg/Kg IP once daily x5,12.7 days
same,Percent Treated Animals/Control Animals,L-1210 lymphoid leukemia; 200 mg/Kg IP once daily x5,168%
same,Treated Group Survival Time (median),L-1210 lymphoid leukemia; 200 mg/Kg IP once daily x5,14.3 days
same,survival through day six (drug toxicity),L-1210 lymphoid leukemia; 12.5-200 mg/Kg IP once daily x5,all drug treated animals survived through day six
same,activity in multiple dose assay,L-1210 lymphoid leukemia; T/C >125% taken as positive,positive activity
same,median death day vs control,L-1210 lymphoid leukemia; all levels of drug tested,longer at all levels of drug tested
same,median death day vs control,L-1210 lymphoid leukemia; greater than 50 mg/Kg,significantly longer
same,in vitro antiviral activity,[1],only moderate
same,Percent Treated Animals/Control Animals,"[2]; Ex. 7a/8, saline with tween/80, 12.5 mg/Kg IP once daily x9",110%
same,Treated Group Survival Time (median),"[2]; Ex. 7a/8, saline with tween/80, 12.5 mg/Kg IP once daily x9, control 12.6",13.9 days
same,Percent Treated Animals/Control Animals,"[2]; Ex. 7a/8, saline with tween/80, 25 mg/Kg IP once daily x9",113%
same,Treated Group Survival Time (median),"[2]; Ex. 7a/8, saline with tween/80, 25 mg/Kg IP once daily x9, control 12.6",14.3 days
same,Percent Treated Animals/Control Animals,"[2]; Ex. 7a/8, saline with tween/80, 50 mg/Kg IP once daily x9",121%
same,Treated Group Survival Time (median),"[2]; Ex. 7a/8, saline with tween/80, 50 mg/Kg IP once daily x9, control 12.6",15.3 days
same,Percent Treated Animals/Control Animals,"[2]; Ex. 7a/8, saline with tween/80, 100 mg/Kg IP once daily x9",145%
same,Treated Group Survival Time (median),"[2]; Ex. 7a/8, saline with tween/80, 100 mg/Kg IP once daily x9, control 12.6",18.3 days
same,Percent Treated Animals/Control Animals,"[2]; Ex. 7a/8, saline with tween/80, 200 mg/Kg IP once daily x9",150%
same,Treated Group Survival Time (median),"[2]; Ex. 7a/8, saline with tween/80, 200 mg/Kg IP once daily x9, control 12.6",19.0 days
same,Percent Treated Animals/Control Animals,"[2]; Ex. 7a/8, saline with tween/80, 400 mg/Kg IP once daily x9",161%
same,Treated Group Survival Time (median),"[2]; Ex. 7a/8, saline with tween/80, 400 mg/Kg IP once daily x9, control 12.6",20.3 days
same,surviving animals judged as no-take,"[2]; Ex. 7a/8, 50 mg/Kg, thirty days",one drug treated animal survived and was judged as a no-take
same,Percent Treated Animals/Control Animals,"[2]; Ex. 7b, water, 300 mg/Kg IP once daily x9",198%
same,Treated Group Survival Time (median),"[2]; Ex. 7b, water, 300 mg/Kg IP once daily x9, control 11.0",21.8 days
same,Percent Treated Animals/Control Animals,"[2]; Ex. 7b, water, 400 mg/Kg IP once daily x9",224%
same,Treated Group Survival Time (median),"[2]; Ex. 7b, water, 400 mg/Kg IP once daily x9, control 11.0",24.7 days
same,Percent Treated Animals/Control Animals,"[2]; Ex. 7b, water, 500 mg/Kg IP once daily x9",190%
same,Treated Group Survival Time (median),"[2]; Ex. 7b, water, 500 mg/Kg IP once daily x9, control 11.0",21.8 days
same,Percent Treated Animals/Control Animals,"[2]; Ex. 7b, water, 600 mg/Kg IP once daily x9",234%
same,Treated Group Survival Time (median),"[2]; Ex. 7b, water, 600 mg/Kg IP once daily x9, control 11.0",25.8 days
same,Percent Treated Animals/Control Animals,"[2]; Ex. 7b, water, 700 mg/Kg IP once daily x9",245%
same,Treated Group Survival Time (median),"[2]; Ex. 7b, water, 700 mg/Kg IP once daily x9, control 11.0",27.0 days
same,Percent Treated Animals/Control Animals,"[2]; Ex. 7b, water, 800 mg/Kg IP once daily x9",245%
same,Treated Group Survival Time (median),"[2]; Ex. 7b, water, 800 mg/Kg IP once daily x9, control 11.0",27.0 days
same,survivors judged as cured,"[2]; Ex. 7b, 700 mg/Kg, thirty days",A survivor
same,survivors judged as cured,"[2]; Ex. 7b, 800 mg/Kg, thirty days",A survivor
same,Percent Treated Animals/Control Animals,"[2]; Ex. 7c, water, 300 mg/Kg IP once daily x9",193%
same,Treated Group Survival Time (median),"[2]; Ex. 7c, water, 300 mg/Kg IP once daily x9, control 11.9",23.0 days
same,Percent Treated Animals/Control Animals,"[2]; Ex. 7c, water, 400 mg/Kg IP once daily x9",201%
same,Treated Group Survival Time (median),"[2]; Ex. 7c, water, 400 mg/Kg IP once daily x9, control 11.9",24.0 days
same,Percent Treated Animals/Control Animals,"[2]; Ex. 7c, water, 500 mg/Kg IP once daily x9",210%
same,Treated Group Survival Time (median),"[2]; Ex. 7c, water, 500 mg/Kg IP once daily x9, control 11.9",25.0 days
same,Percent Treated Animals/Control Animals,"[2]; Ex. 7c, water, 600 mg/Kg IP once daily x9",237%
same,Treated Group Survival Time (median),"[2]; Ex. 7c, water, 600 mg/Kg IP once daily x9, control 11.9",28.3 days
same,Percent Treated Animals/Control Animals,"[2]; Ex. 7c, water, 700 mg/Kg IP once daily x9",86%
same,Treated Group Survival Time (median),"[2]; Ex. 7c, water, 700 mg/Kg IP once daily x9, control 11.9",10. day
same,Percent Treated Animals/Control Animals,"[2]; Ex. 7c, water, 800 mg/Kg IP once daily x9",99%
same,Treated Group Survival Time (median),"[2]; Ex. 7c, water, 800 mg/Kg IP once daily x9, control 11.9",11.8 days
same,animals judged as a cure,"[2]; Ex. 7c, 500 mg/Kg, thirty days",one animal
same,animal mortality attributed to drug toxicity,"[2]; Example 7b, day six cut-off",only one instance
same,activity against P388 lymphocytic leukemia,"[2]; Examples 7 and 8, multiple dose",active antitumor agents; also recorded: active against P388 lymphocytic leukemia
same,DN 2 (Decision Network) criteria of the National Cancer Institute,[2]; P388,successfully passed
same,Percent Treated Animals/Control Animals,[3]; 25.0 mg/Kg IP once daily x9,172%
same,Treated Group Survival Time,[3]; 25.0 mg/Kg IP once daily x9,16.6 days
same,Percent Treated Animals/Control Animals,[3]; 37.5 mg/Kg IP once daily x9,166%
same,Treated Group Survival Time,[3]; 37.5 mg/Kg IP once daily x9,16.0 days
same,Percent Treated Animals/Control Animals,[3]; 75 mg/Kg IP once daily x9,185%
same,Treated Group Survival Time,[3]; 75 mg/Kg IP once daily x9,19.0 days
same,Percent Treated Animals/Control Animals,[3]; 150 mg/Kg IP once daily x9,197%
same,Treated Group Survival Time,[3]; 150 mg/Kg IP once daily x9,20.5 days
same,Percent Treated Animals/Control Animals,[3]; 300 mg/Kg IP once daily x9,213%
same,Treated Group Survival Time,[3]; 300 mg/Kg IP once daily x9,20.5 days
same,Percent Treated Animals/Control Animals,[3]; 600 mg/Kg IP once daily x9,211%
same,Treated Group Survival Time,[3]; 600 mg/Kg IP once daily x9,20.3 days
same,Percent Treated Animals/Control Animals,[3]; 700 mg/Kg IP once daily x9,211%
same,Treated Group Survival Time,[3]; 700 mg/Kg IP once daily x9,20.3 days
same,Percent Treated Animals/Control Animals,[3]; 800 mg/Kg IP once daily x9,221%
same,Treated Group Survival Time,[3]; 800 mg/Kg IP once daily x9,21.3 days
same,effect on brain tumors,"[3]; IP, once daily x9",reduction of the brain tumors
